For series [1], the system named is Tau::GFP fusion protein. In words: Intracellular Tau::GFP fluorescence in stable inducible HEK293 cells with proteasome or lysosome inhibitor. The class given is cell-based. Particulars: inhibitor 25 uM for 4 h before fixation. The procedure:
FIG. 7A Stable inducible cell line HEK293 that express a Tau::GFP fusion protein was transfected with Control Myc or Numb72::Myc, and the Tau::GFP expression was activated by adding Doxycycline 6 h later. The cells were fixed 48 h later and stained for Myc. FIG. 7B. The mean intensity (±SEM) of intracellular Tau::GFP fluorescence in transfected cells was quantified. Cells were treated with vehicle, MG132 (a proteasome inhibitor, 25 uM) or Chloroquine (a lysosome inhibitor, 25 uM) for 4 h before fixation and Myc staining. Quantification represents mean intensity +/− SEM, *p≤0.01; Anova 1-way test.
The potential role of the proteasome and of the lysosome on the ability of Numb to reduce Tau levels was assessed. A stable inducible cell line (HEK293) expressing a Tau::GFP fusion protein was transfected with
Numb72 or a control empty vector. The intracellular Tau::GFP levels was compared when the cells were treated with a proteasome inhibitor (MG132), a lysosome inhibitor (Chloroquine) or a control (vehicle). […] (FIGS. 7A-B).

Series [2] deals with RGCs. Briefly: RGC survival after intravitreal NMDA in Numb cKO and control mice. The series is classed as in vivo, mouse. Particulars: sublethal doses of NMDA in the eyes, 3 days later, Numb cKO mice compared to control. The protocol: FIGS. 5A-C: Down regulation of Tau in Numb cKO RGCs rescues survival to control levels after NMDA-mediated excitotoxicity. FIG. 5A. Immunostaining for Brn3b on retina flat mounts in control and cKO 5-month-old mice 3 days after injection of saline (left panels, FIG. 5A) or NMDA (10 mM; right panels FIG. 5A). Images were taken in the ganglion cell layer. FIGS. 5B and C. Quantification of the number of Brn3b+RGCs per mm^2 in control and cKO mice 3 days after intravitreal injection of saline (FIG. 5B) or NMDA (FIG. 5C). Error bars represent SEM, * p≤0.05, n.s. non-significant; Student's t test. FIG. 5D. Analysis of Tau levels by western blot in retinal extract 24 h, 48 h or 72 h after injection of siRNA against Tau in the eye. […] FIG. 5E. […] Quantification of number of Brn3b RGC per mm^2 in control and cKO mice 72 h after injection. […]
RGCs survival was assessed by counting Brn3b-positive cells on retina flat mounts the within four square (212 um×212 um) areas around the optic nerve disc, and averaging this number per retina and calculate with the area by multiplied by the total area of square. Cell type quantification in retinal section were made by averaging the total number of positive cells for specific markers in a […] region of the central and peripheral retina on 4 different retinal sections per animal. […]

The subject of series [3] is Tau. Briefly: Western blot of Tau fusion protein levels in HEK293T cells co-expressing Numb isoforms. The series is classed as cell-based. Particulars: 48 hours after transfection. From the text: FIGS. 6A-I: Isoform Numb-72 interacts with Tau and regulates Tau level. FIG. 6A. Schematic of 4 Numb isoforms, differing with the presence or the absence of an insertion (arrowhead) in PTB domain arrowhead, and the presence or the absence of an insertion in the proline-rich region (PRR). FIG. 6B. Coimmunoprecipitation of Tau and 4 isoforms of Numb in HEK293 cells. Each Numb isoform was transfected in HEK293T cells together with a flag-tagged version of Tau and immunoprecipitation was perform 24 hours later with a flag antibody and blotted for Numb. […] FIG. 6C. Detection of Tau::GFP level in presence of 4 isoforms of Numb by western blot in HEK293. All the Numb isoforms were transfected with a Tau::GFP fusion protein in HEK293T cells and the levels of Tau::GFP was analysed by western blot 48 hours after transfection. FIG. 6D. Schematic representation of DNA construct of a human-medulloblastoma-derived cell line (DAOY) expressing human Tau fused with EGFP (Lasagna-Reeves et al., 2016). Additionally, this cell line expresses DsRed upstream of an internal ribosomal entry site (IRES), which is translated independently of the Tau-GFP protein. DsRed-IRES-Tau::EGFP expressing cells were used to assess the abundance of Tau by monitoring the Tau-GFP to DsRed fluorescence ratio. FIG. 6E. DsRed and Tau::EGF expression in Daoy cells, transfected with Myc only construct. FIGS. 6F-J. Fluorescence-activated cell sorting (FACs) analysis of the 4 Numb isoforms affected 3 days after transfection on ratio DsRed versus DsRed and GFP-positives cells compared to the control (Myc-Tag). FIG. 6K Quantification represents fold change for 5 experiments, +/− SEM, **p≤0.001; n.s. non-significant Anova 1-way test.
Numb72::Myc. HEK293T cells were transfected with Jet Prime using the following constructs Tau::Flag, Tau::GFP, Numb65, Numb66, Numb71 and Numb72.
Cells were harvested, and lysed in a NP-40 buffer (50 mm TRIS, pH 8.0, 150 mm NaCl, 1.0% NP-40 with Complete Protease Inhibitor Cocktail (Roche)). For immunoblotting, 40 μg of protein samples for in vivo blot and 10 ug for in vitro blot were loaded on a 10% acrylamide SDS-PAGE gels for separation by electrophoresis migration and then transferred onto PVDF membranes using transblot machine (Millipore). […] The primary antibody was detected with an HRP-conjugated goat anti-rabbit (1:10,000; Jackson Immunoresearch) in 0.5% dry milk in TBST. […]
To determine whether increasing the levels of Numb could affect the levels of Tau, the inventors co-expressed all isoforms of Numb together with a Tau::Venus fusion protein in HEK293T cells and analyzed the levels of Tau::Venus by western blot 48 hours after transfection.

Peptide text beside a SMILES is read from it. * marks the point of attachment. Cbz = O=C(OCc1ccccc1)*

On to `CCN(CC)CCCC(C)Nc1ccnc2cc(Cl)ccc12` (stereo not drawn) [Chloroquine], for which the “effect of inhibitor on the ability of Numb72 to reduce Tau::GFP levels” value in series [1] was “neither the proteasome inhibitor nor the lysosome inhibitor abolished the ability of Numb72 to reduce Tau::GFP levels”.

Regarding `CN[C@H](CC(=O)O)C(=O)O` [NMDA, N-methyl-D-aspartate], the RGC numbers entry in series [2] is on record as “two-fold reduction of RGC numbers”.

Take `CC(C)C[C@@H](C=O)NC(=O)[C@H](CC(C)C)NC(=O)[C@H](CC(C)C)NC(=O)OCc1ccccc1` [MG132] (Cbz-Leu-Leu-Leu-aldehyde): the “effect of inhibitor on the ability of Numb72 to reduce Tau::GFP levels” value in series [1] was “neither the proteasome inhibitor nor the lysosome inhibitor abolished the ability of Numb72 to reduce Tau::GFP levels”.

B1: Numb-65: 65 kDa Numb isoform with short PTB domain and short PRR; human isoform 4 (SEQ ID NO: 7) (protein)
chain: MNKLRQSFRRKKDVYVPEASRPHQWQTDEEGVRTGKCSFPVKYLGHVEVDESRGMHICEDAVKRLKATGKKAVKAVLWVSADGLRVVDEKTKDLIVDQTIEKVSFCAPDRNFDRAFSYICRDGTTRRWICHCFMAVKDTGERLSHAVGCAFAACLERKQKREKECGVTATFDASRTTFTREGSFRVTTATEQAEREEIMKQMQDAKKAETDKIVVGSSVAPGNTAPSPSSPTSPTSDATTSLEMNNPHAIPRRHAPIEQLARQGSFRGFPALSQKMSPFKRQLSLRINELPSTMQRKTDFPIKNAVPEVEGEAESISSLCSQITNAFSTPEDPFSSAPMTKPVTVVAPQSPTFQGTEWGQSSGAASPGLFQAGHRRTPSEADRWLEEVSKSVRAQQPQASAAPLQPVLQPPPPTAISQPASPFQGNAFLTSQPVPVGVVPALQPAFVPAQSYPVANGMPYPAPNVPVVGITPSQMVANVFGTAGHPQAAHPHQSPSLVRQQTFPHYEASSATTSPFFKPPAQHLNGSAAFNGVDDGRLASADRHTEVPTGTCPVDPFEAQWAALENKSKQRTNPSPTNPFSSDLQKTFEIEL
modifications: homo sapiens
On to B1, for which the “levels of Tau::Venus by western blot” value in series [3] is recorded as “did not affect Tau levels”.

B2: Numb-71: 71 kDa Numb isoform with short PTB domain and long PRR; human isoform 3 (SEQ ID NO: 6) (protein)
chain: MNKLRQSFRRKKDVYVPEASRPHQWQTDEEGVRTGKCSFPVKYLGHVEVDESRGMHICEDAVKRLKATGKKAVKAVLWVSADGLRVVDEKTKDLIVDQTIEKVSFCAPDRNFDRAFSYICRDGTTRRWICHCFMAVKDTGERLSHAVGCAFAACLERKQKREKECGVTATFDASRTTFTREGSFRVTTATEQAEREEIMKQMQDAKKAETDKIVVGSSVAPGNTAPSPSSPTSPTSDATTSLEMNNPHAIPRRHAPIEQLARQGSFRGFPALSQKMSPFKRQLSLRINELPSTMQRKTDFPIKNAVPEVEGEAESISSLCSQITNAFSTPEDPFSSAPMTKPVTVVAPQSPTFQANGTDSAFHVLAKPAHTALAPVAMPVRETNPWAHAPDAANKEIAATCSGTEWGQSSGAASPGLFQAGHRRTPSEADRWLEEVSKSVRAQQPQASAAPLQPVLQPPPPTAISQPASPFQGNAFLTSQPVPVGVVPALQPAFVPAQSYPVANGMPYPAPNVPVVGITPSQMVANVFGTAGHPQAAHPHQSPSLVRQQTFPHYEASSATTSPFFKPPAQHLNGSAAFNGVDDGRLASADRHTEVPTGTCPVDPFEAQWAALENKSKQRTNPSPTNPFSSDLQKTFEIEL
modifications: homo sapiens
With B2, the “levels of Tau::Venus by western blot” value in series [3] was “did not affect Tau levels”.

B3: Numb-66: 66 kDa Numb isoform with long PTB domain and short PRR; human isoform 2 (SEQ ID NO: 3) (protein)
chain: MNKLRQSFRRKKDVYVPEASRPHQWQTDEEGVRTGKCSFPVKYLGHVEVDESRGMHICEDAVKRLKAERKFFKGFFGKTGKKAVKAVLWVSADGLRVVDEKTKDLIVDQTIEKVSFCAPDRNFDRAFSYICRDGTTRRWICHCFMAVKDTGERLSHAVGCAFAACLERKQKREKECGVTATFDASRTTFTREGSFRVTTATEQAEREEIMKQMQDAKKAETDKIVVGSSVAPGNTAPSPSSPTSPTSDATTSLEMNNPHAIPRRHAPIEQLARQGSFRGFPALSQKMSPFKRQLSLRINELPSTMQRKTDFPIKNAVPEVEGEAESISSLCSQITNAFSTPEDPFSSAPMTKPVTVVAPQSPTFQGTEWGQSSGAASPGLFQAGHRRTPSEADRWLEEVSKSVRAQQPQASAAPLQPVLQPPPPTAISQPASPFQGNAFLTSQPVPVGVVPALQPAFVPAQSYPVANGMPYPAPNVPVVGITPSQMVANVFGTAGHPQAAHPHQSPSLVRQQTFPHYEASSATTSPFFKPPAQHLNGSAAFNGVDDGRLASADRHTEVPTGTCPVDPFEAQWAALENKSKQRTNPSPTNPFSSDLQKTFEIEL
modifications: homo sapiens
For B3, the “levels of Tau::Venus by western blot” value in series [3] is on record as “significantly reduced the levels of Tau”.

The values are drawn from patent US12186353B2, “Method of reducing neuronal microtubule binding protein Tau (Tau) levels” (ADAERATA, LIMITED PARTNERSHIP, priority 2018, dated 2025).
